From the NIST ThermoML archive (doi:10.1021/je7001623)
± gives the expanded uncertainty stated by the source.

Settings: 101.33 kPa, Liquid; for mass density: Vibrating tube method; for viscosity: surface light scattering

CC(C)CCCCCCCOC(=O)c1ccccc1C(=O)OCCCCCCCC(C)C
Settings	mass density [kg/m3]	viscosity [mPa·s]
273.14 K	980.74 ± 0.4	–
278.15 K	977.13 ± 0.39	–
283.15 K	973.51 ± 0.39	265.6 ± 8.2
288.15 K	969.94 ± 0.39	177.4 ± 5.7
293.15 K	966.43 ± 0.39	123.8 ± 3.9
298.15 K	–	88.44 ± 2.7
298.16 K	962.9 ± 0.39	–
303.15 K	–	64.84 ± 2
303.16 K	959.36 ± 0.39	–
308.15 K	–	48.98 ± 1.5
308.16 K	955.81 ± 0.39	–
313.15 K	–	38.01 ± 1.1
313.16 K	952.27 ± 0.39	–
318.16 K	948.73 ± 0.38	–
323.16 K	945.19 ± 0.38	–
328.16 K	941.65 ± 0.38	–
333.16 K	938.12 ± 0.38	–
338.16 K	934.6 ± 0.38	–
348.15 K	927.54 ± 0.38	–
353.15 K	924.02 ± 0.38	–
358.15 K	920.5 ± 0.38	–
363.15 K	916.95 ± 0.37	–
